Experimental data taken from BindingDB's records for doi:10.1021/bi1017182 (University of California Riverside, 2011).

Molecular target: T1, Carbon monoxide dehydrogenase small chain (Afipia carboxidovorans (strain ATCC 49405 / DSM 1227 / KCTC 32145 / OM5), UniProt P19921)
T1 sequence (P19921 whole entry): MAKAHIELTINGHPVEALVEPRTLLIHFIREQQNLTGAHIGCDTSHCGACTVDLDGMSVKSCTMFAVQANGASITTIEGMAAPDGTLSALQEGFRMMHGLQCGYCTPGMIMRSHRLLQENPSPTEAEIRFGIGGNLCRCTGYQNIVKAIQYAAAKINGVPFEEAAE
Experiment: Inhibition Assay
Text: Inhibition of CODH by Diphenyliodomium chloride. Inactivation of the FAD cofactor of CODH was accomplished by covalent modification of the flavin with diphenyliodonium chloride using a modification of the procedure of Chakraborty and Massey.

Compound	Kd [µM]
O=C1C=CC(=O)C=C1 [1,4-Benzoquinone]	47.6
O=C1C=CC(=O)c2ccccc21 [1,4-dihydronaphthalene-1,4-dione]	140
